Assay results as given in the PolyMetriX glass transition set.
± gives the standard deviation of the reports.

Row | SMILES | glass transition temperature
1 | *c1ccc(C(C#N)(C(=O)OCC)C(*)(C#N)C(=O)OCC)cc1 (repeat unit) | 108.00 °C
2 | *c1ccc(C(c2ccc(N3C(=O)c4ccc(-c5ccc6c(c5)C(=O)N(*)C6=O)cc4C3=O)cc2)(C(F)(F)F)C(F)(F)F)cc1 (repeat unit) | 343.00 °C
3 | *CC(*)C(=O)OCC(F)(F)C(F)C(F)(F)F (repeat unit) | -22.00 °C
4 | *CCCCCCCCCNC(=O)c1ccc(C(=O)N*)cc1 (repeat unit) | 115.00 °C
5 | */C(OC)=C(\OC)c1ccc(*)s1 (repeat unit) | 91.00 °C
6 | *Nc1ccccc1CCc1ccc(NC(=O)Nc2ccc(CCc3ccc(NC(*)=O)cc3)cc2)cc1 (repeat unit) | 217.00 °C
7 | *CCCCCCCCCCCCNC(=O)C(OC)C(OC)C(=O)N* (repeat unit) | 84.00 °C
8 | *C(=O)c1ccc(Oc2ccc(Oc3ccc(C(=O)c4ccc5c(c4)C(=O)N(c4ccc(Oc6ccc(N7C(=O)c8ccc(*)cc8C7=O)cc6)cc4)C5=O)cc3)cc2)cc1 (repeat unit) | 220.00 °C
9 | *CC(*)(C)C(=O)OCCOCCO (repeat unit) | 20.00 °C
10 | *Oc1ccc(S(=O)(=O)c2ccc(Oc3c(C)cc(C(c4cc(C)c(*)c(C)c4)(C(F)(F)F)C(F)(F)F)cc3C)c(Br)c2)cc1Br (repeat unit) | 230.80 °C
11 | *CCCOC(=O)c1cc(/N=N/c2ccc(OCC)cc2)ccc1-c1ccc(/N=N/c2ccc(OCC)cc2)cc1C(=O)O* (repeat unit) | 101.00 °C
12 | *CC(=O)Nc1ccc(NC(=O)COc2ccc3ccccc3c2Sc2c(O*)ccc3ccccc23)cc1 (repeat unit) | 268.00 °C
13 | *c1ccc(Cc2ccc(N3C(=O)c4ccc([Si](C)(C)O[Si](C)(C)O[Si](C)(C)c5ccc6c(c5)C(=O)N(*)C6=O)cc4C3=O)cc2)cc1 (repeat unit) | 220.00 °C
14 | *c1ccc(Oc2ccc(Oc3ccc(-c4cnc5ccc(-c6ccc7ncc(*)nc7c6)cc5n4)cc3)cc2)cc1 (repeat unit) | 235.00 °C
15 | *c1ccc(-c2nc3cc4nc(*)c(-c5ccccc5)nc4cc3nc2-c2ccccc2)cc1 (repeat unit) | 395.00 °C
16 | *CC(O)CN(C)S(=O)(=O)c1cccc(S(=O)(=O)N(C)CC(O)COc2ccc(-c3ccc(O*)cc3)cc2)c1 (repeat unit) | 58.00 °C
17 | *c1ccc(OCC2CCC(COc3ccc(N4C(=O)c5ccc(-c6ccc7c(c6)C(=O)N(*)C7=O)cc5C4=O)cc3)CC2)cc1 (repeat unit) | 254.40 °C
18 | *CCC(C)(C)CC(C)COC(=O)c1ccc(C(=O)O*)cc1 (repeat unit) | -9.00 °C
19 | *CCN(*)C(=O)CCC(=O)OC (repeat unit) | 31.00 °C
20 | *C(=O)Nc1ccc(Oc2ccc(C(C)(C)c3ccc(Oc4ccc(NC(=O)c5ccc6c(c5)C(=O)N(c5ccc(Oc7cccc8c(Oc9ccc(N%10C(=O)c%11ccc(*)cc%11C%10=O)cc9)cccc78)cc5)C6=O)cc4)cc3)cc2)cc1 (repeat unit) | 235.00 °C
21 | *CC* (repeat unit) [Poly(ethylene)] | -54.00 ± 89 °C
22 | *c1ccc2c(c1)C(=O)N(c1c(C(C)C)cc(Cc3cc(C(C)C)c(N4C(=O)c5ccc(C(*)(C(F)(F)F)C(F)(F)F)cc5C4=O)c(C(C)C)c3)cc1C(C)C)C2=O (repeat unit) | 278.50 °C

Row | SMILES | glass transition temperature
23 | *c1ccc(Oc2ccc(N3C(=O)c4ccc(S(=O)(=O)c5ccc6c(c5)C(=O)N(*)C6=O)cc4C3=O)cc2)cc1 (repeat unit) | 283.50 °C
24 | *Oc1ccc(C(C)c2ccc(OC(*)=O)cc2)cc1 (repeat unit) | 130.00 °C
25 | *CCCCCCCOc1ccc(-c2ccc(O*)c3ccccc23)c2ccccc12 (repeat unit) | 129.50 °C
26 | *C(=O)Nc1ccc(Oc2ccccc2-c2ccccc2Oc2ccc(NC(=O)c3ccc4c(c3)C(=O)N(c3ccc(Oc5ccc(Oc6ccc(N7C(=O)c8ccc(*)cc8C7=O)cc6)cc5)cc3)C4=O)cc2)cc1 (repeat unit) | 238.00 °C
27 | *Oc1c(C)cc(-c2cc(CBr)c(Oc3ccc(C(=O)c4ccc(*)cc4)cc3)c(CBr)c2)cc1CBr (repeat unit) | 163.67 °C
28 | *Nc1ccc(C(c2ccc(NC(=O)c3cc(NC(=O)C45CC6CC(CC(C6)C4)C5)cc(C(*)=O)c3)cc2)(C(F)(F)F)C(F)(F)F)cc1 (repeat unit) | 365.00 °C
29 | *CCCCCCCCCCC(=O)N(*)C (repeat unit) | -12.00 °C
30 | *CCOC(=O)Cc1ccc(C(=O)O*)cc1 (repeat unit) | 24.00 °C
31 | *CCCCCCOC(=O)C(CCCCCCP(=O)(O)O)C(=O)OCCCCCCOc1ccc(-n2on2-c2ccc(O*)cc2)cc1 (repeat unit) | 21.00 °C
32 | *Nc1c(-c2ccccc2)cc(-c2ccc(-c3cc(-c4ccccc4)c(NC(=O)c4ccc(C(*)=O)cc4)c(-c4ccccc4)c3)cc2)cc1-c1ccccc1 (repeat unit) | 135.00 °C
33 | *CC[CH2][Sn]([CH3])([CH3])[CH2]CCOC(=O)C(CCCCCCCCOc1ccc(-c2ccc(OCc3ccc(C#N)cc3)cc2)cc1)C(=O)O* (repeat unit) | 22.00 °C
34 | *Nc1ccc(*)cc1 (repeat unit) | 75.30 °C
35 | *CC(*)(C)C(=O)OCCCCCCOc1ccc2cc(C(=O)Oc3ccccc3)ccc2c1 (repeat unit) | 39.00 °C
36 | *CCOC(=O)Nc1ccc(C)c(NC(=O)OCCOc2cc([N+](=O)[O-])ccc2/N=N/c2cn(*)c3ccccc23)c1 (repeat unit) | 150.00 °C
37 | *CCCOc1cccc(C(=O)OC(=O)c2cccc(O*)c2)c1 (repeat unit) | 53.00 °C
38 | *C(=O)c1ccc2c(c1)C(=O)N(c1ccc(-c3cc(C(C)(C)C)c(Oc4ccc(N5C(=O)c6ccc(*)cc6C5=O)cc4C(F)(F)F)c(C(C)(C)C)c3)cc1)C2=O (repeat unit) | 362.00 °C
39 | *c1ccc(Oc2ccc(Oc3ccc(P(=O)(c4ccccc4)c4ccc(Oc5ccc(Oc6ccc(-c7nc8ccc(-c9ccc%10nc(*)oc%10c9)cc8o7)cc6)cc5)cc4)cc3)cc2)cc1 (repeat unit) | 223.00 °C
40 | *CC(*)CCCCCCCCCCCCCCCC (repeat unit) | 55.00 °C
41 | *CCOCCOC(=O)CC(=O)O* (repeat unit) | -41.50 °C
42 | *Nc1ccc(CC(C)(C)NC(=O)c2ccc(C(*)=O)cc2)cc1 (repeat unit) | 175.00 °C
43 | *CCCCCCCCCCC(Cl)C(*)Cl (repeat unit) | -32.00 °C
44 | *c1cc(CCOc2ccc(/N=N/c3ccc(C#N)cc3)cc2)c(*)s1 (repeat unit) | 73.00 °C

Row | SMILES | glass transition temperature
45 | *CC(*)(C)C(=O)Oc1ccc(C(=O)Oc2ccccc2)cc1 (repeat unit) | 99.00 °C
46 | *Oc1ccccc1C(=O)OC(=O)c1ccccc1OC(=O)CCCCC(*)=O (repeat unit) | 55.00 °C
47 | *C(=O)c1ccc2c(c1)C(=O)N(c1cc(Br)c(Oc3c(Br)cc(N4C(=O)c5ccc(*)cc5C4=O)cc3Br)c(Br)c1)C2=O (repeat unit) | 323.00 °C
48 | *CC(*)c1cccc2c1OCO2 (repeat unit) | 119.00 °C
49 | *CC(*)(C)C(=O)OCCCCCCOc1ccc(C(=O)Oc2ccc(/N=N/c3ccc(C#N)cc3)c3ccccc23)cc1 (repeat unit) | 41.00 °C
50 | *C/C=C/C[Si](*)(C)CCCOc1ccccc1 (repeat unit) | -30.00 °C
51 | *Oc1ccc(C(CC)(c2ccccc2)c2ccc(OC(=O)c3ccc(C(*)=O)cc3)cc2)cc1 (repeat unit) | 243.00 °C
52 | *CC(*)(C)C(=O)OCCCCCCOc1ccc(C(=O)Oc2ccc(OC)cc2)cc1 (repeat unit) | 46.00 °C
53 | *C(=O)Nc1cccc(NC(=O)c2ccc3c(c2)C(=O)N(c2ccc(Oc4cccc5c(Oc6ccc(N7C(=O)c8ccc(*)cc8C7=O)cc6)cccc45)cc2)C3=O)c1 (repeat unit) | 263.00 °C
54 | *CC(*)(C)C(=O)OCCCCCCCCCCOc1ccc(/N=N/c2ccc(F)cc2)cc1 (repeat unit) | 49.00 °C
55 | *C(=O)Nc1ccc(Cc2ccc(NC(=O)c3ccc4c(c3)C(=O)N(c3ccc(/N=N/c5ccc(C)cc5)c(N5C(=O)c6ccc(*)cc6C5=O)c3)C4=O)c(C)c2)cc1C (repeat unit) | 257.00 °C
56 | *CC(COC(=O)O*)OCCCCCCCCCCCOc1ccc(/C=C/c2ccc([N+](=O)[O-])cc2)cc1 (repeat unit) | 21.00 °C
57 | *CCCCC(c1ccc(O)cc1)C(*)c1ccc(O)cc1C (repeat unit) | 25.00 °C
58 | *c1ccc2c(c1)C(=O)N(c1ccc(C(C)(C)c3ccc(C(C)(C)c4ccc(N5C(=O)c6ccc(C(*)(C(F)(F)F)C(F)(F)F)cc6C5=O)cc4)cc3)cc1)C2=O (repeat unit) | 235.40 °C
59 | *CC(O)COc1ccc(C(C)(C)c2ccc(OCC(O)CN3CCN(*)CC3)cc2)cc1 (repeat unit) | 100.00 °C
60 | *O[Si](C)(C)c1cc(OCCOCc2ccccc2)c([Si](*)(C)C)cc1OCCOCc1ccccc1 (repeat unit) | 76.00 °C
61 | *c1c(C)cc(C(c2cc(C(F)(F)F)cc(C(F)(F)F)c2)c2cc(C)c(N3C(=O)c4ccc(Oc5ccc6c(c5)C(=O)N(*)C6=O)cc4C3=O)c(C)c2)cc1C (repeat unit) | 281.90 °C
62 | *C(=O)c1ccc2c(c1)C(=O)N(c1cccc(C(O)c3cccc(N4C(=O)c5ccc(*)cc5C4=O)c3)c1)C2=O (repeat unit) | 292.00 °C
63 | *Nc1cc(NC(=O)c2cc(OCCCN(C)c3ccc(/N=N/c4ccc(S(C)(=O)=O)cc4)cc3)cc(C(*)=O)c2)cc(C(=O)OCCCN(C)c2ccc(/N=N/c3ccc(S(C)(=O)=O)cc3)cc2)c1 (repeat unit) | 168.00 °C
64 | *CC(*)(C)C(=O)OCCCCCCCCCCOc1ccc(C(=O)Oc2ccc(C(=O)/C=C/c3c(C)c4ccccc4n3C)cc2)cc1 (repeat unit) | 72.00 °C
65 | *CC(*)C(=O)OCCCCCCCCCCOC(=O)c1ccc(OC(=O)c2ccc(C#N)cc2)cc1 (repeat unit) | 15.00 °C
